Laboratory results: ChEMBL document CHEMBL1275569, “Plasmid-mediated 16S rRNA methylases among extended-spectrum beta-lactamase-producing Enterobacteriaceae isolates” (2008)
≈ marks a conversion by molar mass, not a printed value.

These compounds were tested on Klebsiella pneumoniae (assay: Antimicrobial activity against armA positive Klebsiella pneumoniae DU producing beta lactamase CTX-M-3 by Etest method).
Assay type: functional

Compound	MIC
C[C@@H](O)[C@H]1C(=O)N2C(C(=O)O)=C(SCCNC=N)C[C@H]12 [IMIPENEM ANHYDROUS]	0.19 µg/mL (≈ 0.635 µM)
CCN[C@@H]1C[C@H](N)[C@@H](O[C@H]2OC(CN)=CC[C@H]2N)[C@H](O)[C@H]1O[C@H]1OC[C@](C)(O)[C@H](NC)[C@H]1O [NETILMICIN]	> 256 µg/mL
CCn1cc(C(=O)O)c(=O)c2cc(F)c(N3CCNCC3)cc21 [NORFLOXACIN]	0.75 µg/mL (≈ 2.35 µM)
NC[C@H]1O[C@H](O[C@H]2[C@H](O)[C@@H](O[C@H]3O[C@H](CO)[C@@H](O)[C@H](N)[C@H]3O)[C@H](N)C[C@@H]2N)[C@H](N)C[C@@H]1O [TOBRAMYCIN]	> 256 µg/mL
GENTAMICIN	> 256 µg/mL

These compounds were tested on Escherichia coli (assay: Antimicrobial activity against armA positive Escherichia coli MEZ producing beta lactamase CTX-M-3 by Etest method).
Assay type: functional

Compound	MIC
C[C@@H](O)[C@H]1C(=O)N2C(C(=O)O)=C(SCCNC=N)C[C@H]12 [IMIPENEM ANHYDROUS]	0.19 µg/mL (≈ 0.635 µM)
CCN[C@@H]1C[C@H](N)[C@@H](O[C@H]2OC(CN)=CC[C@H]2N)[C@H](O)[C@H]1O[C@H]1OC[C@](C)(O)[C@H](NC)[C@H]1O [NETILMICIN]	> 256 µg/mL
CCn1cc(C(=O)O)c(=O)c2cc(F)c(N3CCNCC3)cc21 [NORFLOXACIN]	> 256 µg/mL
NC[C@H]1O[C@H](O[C@H]2[C@H](O)[C@@H](O[C@H]3O[C@H](CO)[C@@H](O)[C@H](N)[C@H]3O)[C@H](N)C[C@@H]2N)[C@H](N)C[C@@H]1O [TOBRAMYCIN]	> 256 µg/mL
GENTAMICIN	> 256 µg/mL

Each compound was assayed on Escherichia coli (assay: Antimicrobial activity against armA positive Escherichia coli TOP10 harboring plasmid COP1 by Etest method).
Assay type: functional

Compound	MIC
C[C@@H](O)[C@H]1C(=O)N2C(C(=O)O)=C(SCCNC=N)C[C@H]12 [IMIPENEM ANHYDROUS]	0.19 µg/mL (≈ 0.635 µM)
CCn1cc(C(=O)O)c(=O)c2cc(F)c(N3CCNCC3)cc21 [NORFLOXACIN]	< 0.016 µg/mL
GENTAMICIN	> 256 µg/mL

These compounds were tested on Escherichia coli (assay: Antimicrobial activity against Escherichia coli TOP10 by Etest method).
Assay type: functional

Compound	MIC
C[C@@H](O)[C@H]1C(=O)N2C(C(=O)O)=C(SCCNC=N)C[C@H]12 [IMIPENEM ANHYDROUS]	0.19 µg/mL (≈ 0.635 µM)
CCN[C@@H]1C[C@H](N)[C@@H](O[C@H]2OC(CN)=CC[C@H]2N)[C@H](O)[C@H]1O[C@H]1OC[C@](C)(O)[C@H](NC)[C@H]1O [NETILMICIN]	0.25 µg/mL (≈ 0.526 µM)
CCn1cc(C(=O)O)c(=O)c2cc(F)c(N3CCNCC3)cc21 [NORFLOXACIN]	< 0.016 µg/mL
NC[C@H]1O[C@H](O[C@H]2[C@H](O)[C@@H](O[C@H]3O[C@H](CO)[C@@H](O)[C@H](N)[C@H]3O)[C@H](N)C[C@@H]2N)[C@H](N)C[C@@H]1O [TOBRAMYCIN]	0.38 µg/mL (≈ 0.813 µM)
GENTAMICIN	0.25 µg/mL

These compounds were tested on Escherichia coli (assay: Antimicrobial activity against Escherichia coli TOP10 harboring plasmid VOG2 expressing CTX-M-14 and AAC(6 )-Ib gene by Etest method).
Assay type: functional

Compound	MIC
C[C@@H](O)[C@H]1C(=O)N2C(C(=O)O)=C(SCCNC=N)C[C@H]12 [IMIPENEM ANHYDROUS]	0.19 µg/mL (≈ 0.635 µM)
CCN[C@@H]1C[C@H](N)[C@@H](O[C@H]2OC(CN)=CC[C@H]2N)[C@H](O)[C@H]1O[C@H]1OC[C@](C)(O)[C@H](NC)[C@H]1O [NETILMICIN]	1.5 µg/mL (≈ 3.15 µM)
CCn1cc(C(=O)O)c(=O)c2cc(F)c(N3CCNCC3)cc21 [NORFLOXACIN]	< 0.016 µg/mL
NC[C@H]1O[C@H](O[C@H]2[C@H](O)[C@@H](O[C@H]3O[C@H](CO)[C@@H](O)[C@H](N)[C@H]3O)[C@H](N)C[C@@H]2N)[C@H](N)C[C@@H]1O [TOBRAMYCIN]	3 µg/mL (≈ 6.42 µM)
GENTAMICIN	0.25 µg/mL

These compounds were tested on Enterobacter cloacae (assay: Antimicrobial activity against armA positive Enterobacter cloacae BEH producing beta lactamase CTX-M-3 by Etest method).
Assay type: functional

Compound	MIC
C[C@@H](O)[C@H]1C(=O)N2C(C(=O)O)=C(SCCNC=N)C[C@H]12 [IMIPENEM ANHYDROUS]	0.19 µg/mL (≈ 0.635 µM)
CCN[C@@H]1C[C@H](N)[C@@H](O[C@H]2OC(CN)=CC[C@H]2N)[C@H](O)[C@H]1O[C@H]1OC[C@](C)(O)[C@H](NC)[C@H]1O [NETILMICIN]	> 256 µg/mL
CCn1cc(C(=O)O)c(=O)c2cc(F)c(N3CCNCC3)cc21 [NORFLOXACIN]	1 µg/mL (≈ 3.13 µM)
NC[C@H]1O[C@H](O[C@H]2[C@H](O)[C@@H](O[C@H]3O[C@H](CO)[C@@H](O)[C@H](N)[C@H]3O)[C@H](N)C[C@@H]2N)[C@H](N)C[C@@H]1O [TOBRAMYCIN]	> 256 µg/mL
GENTAMICIN	> 256 µg/mL

What follows are compounds tested on Escherichia coli (assay: Antimicrobial activity against rmtB positive Escherichia coli VOG producing beta lactamase CTX-M-14 by Etest method).
Assay type: functional

Compound	MIC
C[C@@H](O)[C@H]1C(=O)N2C(C(=O)O)=C(SCCNC=N)C[C@H]12 [IMIPENEM ANHYDROUS]	0.19 µg/mL (≈ 0.635 µM)
CCN[C@@H]1C[C@H](N)[C@@H](O[C@H]2OC(CN)=CC[C@H]2N)[C@H](O)[C@H]1O[C@H]1OC[C@](C)(O)[C@H](NC)[C@H]1O [NETILMICIN]	> 256 µg/mL
CCn1cc(C(=O)O)c(=O)c2cc(F)c(N3CCNCC3)cc21 [NORFLOXACIN]	> 256 µg/mL
NC[C@H]1O[C@H](O[C@H]2[C@H](O)[C@@H](O[C@H]3O[C@H](CO)[C@@H](O)[C@H](N)[C@H]3O)[C@H](N)C[C@@H]2N)[C@H](N)C[C@@H]1O [TOBRAMYCIN]	> 256 µg/mL
GENTAMICIN	> 256 µg/mL

Each compound was assayed on Escherichia coli (assay: Antimicrobial activity against armA positive Escherichia coli TOP10 producing beta lactamase CTX-M-3 with plasmid BEH by Etest method).
Assay type: functional

Compound	MIC
C[C@@H](O)[C@H]1C(=O)N2C(C(=O)O)=C(SCCNC=N)C[C@H]12 [IMIPENEM ANHYDROUS]	0.19 µg/mL (≈ 0.635 µM)
CCN[C@@H]1C[C@H](N)[C@@H](O[C@H]2OC(CN)=CC[C@H]2N)[C@H](O)[C@H]1O[C@H]1OC[C@](C)(O)[C@H](NC)[C@H]1O [NETILMICIN]	> 256 µg/mL
CCn1cc(C(=O)O)c(=O)c2cc(F)c(N3CCNCC3)cc21 [NORFLOXACIN]	0.016 µg/mL (≈ 0.0501 µM)
NC[C@H]1O[C@H](O[C@H]2[C@H](O)[C@@H](O[C@H]3O[C@H](CO)[C@@H](O)[C@H](N)[C@H]3O)[C@H](N)C[C@@H]2N)[C@H](N)C[C@@H]1O [TOBRAMYCIN]	> 256 µg/mL
GENTAMICIN	> 256 µg/mL

What follows are compounds tested on Escherichia coli (assay: Antimicrobial activity against armA positive Escherichia coli TOP10 producing beta lactamase CTX-M-3 with plasmid DU by Etest method).
Assay type: functional

Compound	MIC
C[C@@H](O)[C@H]1C(=O)N2C(C(=O)O)=C(SCCNC=N)C[C@H]12 [IMIPENEM ANHYDROUS]	0.19 µg/mL (≈ 0.635 µM)
CCN[C@@H]1C[C@H](N)[C@@H](O[C@H]2OC(CN)=CC[C@H]2N)[C@H](O)[C@H]1O[C@H]1OC[C@](C)(O)[C@H](NC)[C@H]1O [NETILMICIN]	> 256 µg/mL
CCn1cc(C(=O)O)c(=O)c2cc(F)c(N3CCNCC3)cc21 [NORFLOXACIN]	0.016 µg/mL (≈ 0.0501 µM)
NC[C@H]1O[C@H](O[C@H]2[C@H](O)[C@@H](O[C@H]3O[C@H](CO)[C@@H](O)[C@H](N)[C@H]3O)[C@H](N)C[C@@H]2N)[C@H](N)C[C@@H]1O [TOBRAMYCIN]	> 256 µg/mL
GENTAMICIN	> 256 µg/mL

What follows are compounds tested on Escherichia coli (assay: Antimicrobial activity against beta lactamase CTX-M-14 producing Escherichia coli TOP10 harboring plasmid COP2 by Etest method).
Assay type: functional

Compound	MIC
C[C@@H](O)[C@H]1C(=O)N2C(C(=O)O)=C(SCCNC=N)C[C@H]12 [IMIPENEM ANHYDROUS]	0.19 µg/mL (≈ 0.635 µM)
CCN[C@@H]1C[C@H](N)[C@@H](O[C@H]2OC(CN)=CC[C@H]2N)[C@H](O)[C@H]1O[C@H]1OC[C@](C)(O)[C@H](NC)[C@H]1O [NETILMICIN]	0.125 µg/mL (≈ 0.263 µM)
CCn1cc(C(=O)O)c(=O)c2cc(F)c(N3CCNCC3)cc21 [NORFLOXACIN]	< 0.016 µg/mL
NC[C@H]1O[C@H](O[C@H]2[C@H](O)[C@@H](O[C@H]3O[C@H](CO)[C@@H](O)[C@H](N)[C@H]3O)[C@H](N)C[C@@H]2N)[C@H](N)C[C@@H]1O [TOBRAMYCIN]	0.19 µg/mL (≈ 0.406 µM)
GENTAMICIN	0.125 µg/mL

Each compound was assayed on Escherichia coli (assay: Antimicrobial activity against Escherichia coli TOP10 harboring plasmid VOG1 expressing RmtB, TEM-1, and QepA gene by Etest method).
Assay type: functional

Compound	MIC
C[C@@H](O)[C@H]1C(=O)N2C(C(=O)O)=C(SCCNC=N)C[C@H]12 [IMIPENEM ANHYDROUS]	0.19 µg/mL (≈ 0.635 µM)
CCn1cc(C(=O)O)c(=O)c2cc(F)c(N3CCNCC3)cc21 [NORFLOXACIN]	0.032 µg/mL (≈ 0.1 µM)
GENTAMICIN	> 256 µg/mL

These compounds were tested on Escherichia coli (assay: Antimicrobial activity against armA positive Escherichia coli TOP10 producing beta lactamase CTX-M-3 with plasmid MEZ by Etest method).
Assay type: functional

Compound	MIC
C[C@@H](O)[C@H]1C(=O)N2C(C(=O)O)=C(SCCNC=N)C[C@H]12 [IMIPENEM ANHYDROUS]	0.19 µg/mL (≈ 0.635 µM)
CCN[C@@H]1C[C@H](N)[C@@H](O[C@H]2OC(CN)=CC[C@H]2N)[C@H](O)[C@H]1O[C@H]1OC[C@](C)(O)[C@H](NC)[C@H]1O [NETILMICIN]	> 256 µg/mL
CCn1cc(C(=O)O)c(=O)c2cc(F)c(N3CCNCC3)cc21 [NORFLOXACIN]	0.016 µg/mL (≈ 0.0501 µM)
NC[C@H]1O[C@H](O[C@H]2[C@H](O)[C@@H](O[C@H]3O[C@H](CO)[C@@H](O)[C@H](N)[C@H]3O)[C@H](N)C[C@@H]2N)[C@H](N)C[C@@H]1O [TOBRAMYCIN]	> 256 µg/mL
GENTAMICIN	> 256 µg/mL

What follows are compounds tested on Escherichia coli (assay: Antimicrobial activity against armA positive Escherichia coli COP producing beta lactamase CTX-M-14 by Etest method).

Compound	MIC
C[C@@H](O)[C@H]1C(=O)N2C(C(=O)O)=C(SCCNC=N)C[C@H]12 [IMIPENEM ANHYDROUS]	0.19 µg/mL (≈ 0.635 µM)
CCN[C@@H]1C[C@H](N)[C@@H](O[C@H]2OC(CN)=CC[C@H]2N)[C@H](O)[C@H]1O[C@H]1OC[C@](C)(O)[C@H](NC)[C@H]1O [NETILMICIN]	> 256 µg/mL
CCn1cc(C(=O)O)c(=O)c2cc(F)c(N3CCNCC3)cc21 [NORFLOXACIN]	> 256 µg/mL
NC[C@H]1O[C@H](O[C@H]2[C@H](O)[C@@H](O[C@H]3O[C@H](CO)[C@@H](O)[C@H](N)[C@H]3O)[C@H](N)C[C@@H]2N)[C@H](N)C[C@@H]1O [TOBRAMYCIN]	> 256 µg/mL
